Experimental data taken from PubChem BioAssay (NCI).
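Following 48 hours of exposure in 96-well plates, responses at five concentrations were used to interpolate endpoints linearly. TGI: concentration producing complete growth inhibition.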

Legend:
Test in all cases: NCI anticancer screen, dose series, 48 h
786-0 renal = test system: 786-0 renal
A498 renal = test system: A498 renal
A549 NSCLC = test system: A549 NSCLC
ACHN renal = test system: ACHN renal
CAKI-1 renal = test system: CAKI-1 renal
CCRF-CEM leukemia = test system: CCRF-CEM leukemia
COLO 205 colon = test system: COLO 205 colon
DLD-1 colon = test system: DLD-1 colon
DMS 114 small cell lung = test system: DMS 114 small cell lung
DMS 273 small cell lung = test system: DMS 273 small cell lung
EKVX NSCLC = test system: EKVX NSCLC
HCC-2998 colon = test system: HCC-2998 colon
HCT-116 colon = test system: HCT-116 colon
HCT-15 colon = test system: HCT-15 colon
HL-60(TB) leukemia = test system: HL-60(TB) leukemia
HOP-18 NSCLC = test system: HOP-18 NSCLC
HOP-62 NSCLC = test system: HOP-62 NSCLC
HOP-92 NSCLC = test system: HOP-92 NSCLC
HT29 colon = test system: HT29 colon
IGROV1 ovarian = test system: IGROV1 ovarian
K-562 leukemia = test system: K-562 leukemia
KM12 colon = test system: KM12 colon
KM20L2 colon = test system: KM20L2 colon
LOX IMVI melanoma = test system: LOX IMVI melanoma
LXFL 529 NSCLC = test system: LXFL 529 NSCLC
M14 melanoma = test system: M14 melanoma
M19-MEL melanoma = test system: M19-MEL melanoma
MALME-3M melanoma = test system: MALME-3M melanoma
MOLT-4 leukemia = test system: MOLT-4 leukemia
NCI-H226 lung = test system: NCI-H226 lung
NCI-H23 lung = test system: NCI-H23 lung
NCI-H460 lung = test system: NCI-H460 lung
NCI-H522 lung = test system: NCI-H522 lung
OVCAR-3 ovarian = test system: OVCAR-3 ovarian
OVCAR-4 ovarian = test system: OVCAR-4 ovarian
OVCAR-5 ovarian = test system: OVCAR-5 ovarian
OVCAR-8 ovarian = test system: OVCAR-8 ovarian
RPMI-8226 leukemia = test system: RPMI-8226 leukemia
RXF 393 renal = test system: RXF 393 renal
RXF-631 renal = test system: RXF-631 renal
SF-268 CNS = test system: SF-268 CNS
SF-295 CNS = test system: SF-295 CNS
SF-539 CNS = test system: SF-539 CNS
SK-MEL-2 melanoma = test system: SK-MEL-2 melanoma
SK-MEL-28 melanoma = test system: SK-MEL-28 melanoma
SK-MEL-5 melanoma = test system: SK-MEL-5 melanoma
SK-OV-3 ovarian = test system: SK-OV-3 ovarian
SN12C renal = test system: SN12C renal
SNB-19 CNS = test system: SNB-19 CNS
SNB-75 CNS = test system: SNB-75 CNS
SNB-78 CNS = test system: SNB-78 CNS
SW-620 colon = test system: SW-620 colon
TK-10 renal = test system: TK-10 renal
U251 CNS = test system: U251 CNS
UACC-257 melanoma = test system: UACC-257 melanoma
UACC-62 melanoma = test system: UACC-62 melanoma
UO-31 renal = test system: UO-31 renal
XF 498 CNS = test system: XF 498 CNS
SR leukemia = test system: SR leukemia

Measured: TGI

CCC(C)(O)c1cn(-c2ccc(S(=O)(=O)O)cc2)nn1 (stereo not drawn)
not listed: SR leukemia
> 100 µM: all other assays above

COc1ccc2c(c1)[n+](=O)c(C(=O)CC(=O)C(=O)Nc1cccc(C)c1C)c(C)n2[O-]
not listed: A498 renal | COLO 205 colon | DMS 273 small cell lung | SNB-75 CNS
> 100 µM: all other assays above
